Reference: US10150766B2, “P2X7 modulators” (Jansssen Pharmaceutica NV, priority 2014, dated 2018)
Where two headings read alike, the source gives them in different places.

What was measured:
P2X7 [1] = target: T1, P2X7 (Homo sapiens (Human), UniProt Q99572); assay: P2X7 antagonism in human peripheral blood mononuclear cells (PBMCs), IL-1β release (LPS + Bz-ATP, ELISA); type: cell-based; details: P2X7, 10 μM test compound, LPS 30 ng/ml + Bz-ATP 0.5 mM, read-out: PBMC @10 μM (% control)
rat P2X7 = rat P2X7 (Rattus norvegicus (Rat), UniProt Q64663); assay: P2X7 antagonism in recombinant rat P2X7 cells (column headed P2X7 Rat IC50); type: binding
Sequence of rat P2X7 (Q64663 whole entry): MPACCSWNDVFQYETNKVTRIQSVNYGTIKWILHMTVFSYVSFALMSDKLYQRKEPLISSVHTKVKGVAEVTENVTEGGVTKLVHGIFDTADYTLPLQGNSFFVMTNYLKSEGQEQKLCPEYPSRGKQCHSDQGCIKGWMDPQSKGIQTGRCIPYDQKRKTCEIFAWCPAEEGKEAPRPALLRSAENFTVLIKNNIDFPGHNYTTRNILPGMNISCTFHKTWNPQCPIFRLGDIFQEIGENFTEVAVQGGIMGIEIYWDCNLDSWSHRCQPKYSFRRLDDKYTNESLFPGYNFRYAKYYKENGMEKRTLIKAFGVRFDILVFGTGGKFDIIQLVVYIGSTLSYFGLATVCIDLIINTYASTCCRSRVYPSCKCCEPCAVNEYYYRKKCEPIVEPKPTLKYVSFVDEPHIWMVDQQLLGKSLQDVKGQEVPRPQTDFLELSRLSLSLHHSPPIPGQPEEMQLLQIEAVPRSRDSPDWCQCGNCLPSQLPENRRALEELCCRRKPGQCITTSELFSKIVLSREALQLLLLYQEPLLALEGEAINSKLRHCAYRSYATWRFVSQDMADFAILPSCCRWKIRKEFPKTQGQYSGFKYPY

P2X7 [2] = target: T1, P2X7; assay: Radioligand binding ([3H]A-804598) to membranes of human P2X7-1321N1 cells; details: human P2X7-1321N1 membranes, tracer tritiated A-804598, 1 hour at 4° C.
Procedure: P2X7 Antagonism in Recombinant Human P2X7 Cells or Recombinant Rat P2X7 Cells:
human or rat P2X7-1321N1 cells were collected and frozen @ −80° C. On the day of the experiment, cell membrane preparations were made according to standard published methods. […] The compound can be prepared as described in the literature. […] The assay was terminated by filtration (GF/B filters pre-soaked with 0.3% PEI) and washed with washing buffer (Tris-HCl 50 mM). The IC50 generated in the binding assay was corrected for tracer concentration and affinity of the tracer to derive at the affinity (Ki) of the test compounds. The data are presented in Table 2 under the headings: P2X7 human Ki (μM) and P2X7 rat Ki (μM). Data are analyzed and graphed on Graphpad Prism 5. For analysis, each concentration point is averaged from triplicate values and the averaged values are plotted on Graphpad Prism.

P2X7 [3] = target: T1, P2X7; assay: P2X7 antagonism in human whole blood, IL-1β release (LPS + Bz-ATP, ELISA); type: cell-based; details: LPS 30 ng/ml + Bz-ATP 1 mM
[4] = read-out: Human Whole Blood IC50

T1 sequence (Q99572 whole entry): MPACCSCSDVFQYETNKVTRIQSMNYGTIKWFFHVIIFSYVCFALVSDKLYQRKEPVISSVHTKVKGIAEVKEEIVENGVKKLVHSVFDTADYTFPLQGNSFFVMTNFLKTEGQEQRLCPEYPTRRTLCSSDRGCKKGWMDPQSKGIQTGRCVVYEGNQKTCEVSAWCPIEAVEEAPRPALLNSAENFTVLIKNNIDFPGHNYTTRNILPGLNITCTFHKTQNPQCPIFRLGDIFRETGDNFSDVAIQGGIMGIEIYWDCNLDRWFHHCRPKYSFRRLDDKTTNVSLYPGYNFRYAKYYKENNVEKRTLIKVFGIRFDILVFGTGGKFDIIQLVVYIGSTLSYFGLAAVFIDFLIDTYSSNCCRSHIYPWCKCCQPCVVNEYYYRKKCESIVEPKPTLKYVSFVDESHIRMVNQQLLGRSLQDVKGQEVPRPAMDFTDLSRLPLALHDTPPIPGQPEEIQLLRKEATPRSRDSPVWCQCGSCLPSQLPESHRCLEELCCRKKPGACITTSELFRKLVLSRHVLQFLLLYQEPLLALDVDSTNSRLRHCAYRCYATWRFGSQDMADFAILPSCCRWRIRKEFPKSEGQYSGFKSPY

Work on Cc1nc(-c2ccccn2)c2c(n1)[C@H]1CCC[C@@H](C2)N1C(=O)c1ccc(Cl)c(F)c1Cl [Example 64, (2,4-dichloro-3-fluorophenyl)((6S,10R)-2-methyl-4-(pyridin-2-yl)-5,6,7,8,9,10-hexahydro-6,10-epiminocycloocta[d]pyrimidin-11-yl)methanone] yielded a remaining activity at 10 µM (P2X7 [1]) of -2.8%, an IC50 (rat P2X7) of 376 nM and a Ki (P2X7 [2]) of 20 nM. For the same molecule, the IC50 (P2X7 [3]; Human Whole Blood IC50 (μM)) was 0.037 µM.
For Cc1nc(-c2ccn[nH]2)c2c(n1)[C@H]1CCC[C@@H](C2)N1C(=O)c1ccnc(C(F)(F)F)c1F [Example 27, (3-fluoro-2-(trifluoromethyl)pyridin-4-yl)((6S,10R)-2-methyl-4-(1H-pyrazol-5-yl)-5,6,7,8,9,10-hexahydro-6,10-epiminocycloocta[d]pyrimidin-11-yl)methanone], the remaining activity at 10 µM (P2X7 [1]) was -10.2%, the IC50 (rat P2X7) was 132 nM and the Ki (P2X7 [2]) was 151 nM. For the same molecule, the IC50 (P2X7 [3]; [4]) was 0.172 µM.
In the case of Cc1nc(-c2ccccn2)c2c(n1)[C@H]1CCC[C@@H](C2)N1C(=O)c1cccc(C(F)(F)F)c1Cl [Example 63, (2-chloro-3-(trifluoromethyl)phenyl)((6S,10R)-2-methyl-4-(pyridin-2-yl)-5,6,7,8,9,10-hexahydro-6,10-epiminocycloocta[d]pyrimidin-11-yl)methanone], the remaining activity at 10 µM (P2X7 [1]) is reported as -0.9%, the IC50 (rat P2X7) is reported as 33.1 nM and the Ki (P2X7 [2]) is reported as 39.8 nM. It also gave an IC50 (P2X7 [3]; Human Whole Blood IC50 (μM)) of 0.068 µM.
Cc1nc(-c2ncccn2)c2c(n1)[C@H]1CCC[C@@H](C2)N1C(=O)c1ccnc(C(F)(F)F)c1Cl [Example 42, (3-chloro-2-(trifluoromethyl)pyridin-4-yl)((6S,10R)-2-methyl-4-(pyrimidin-2-yl)-5,6,7,8,9,10-hexahydro-6,10-epiminocycloocta[d]pyrimidin-11-yl)methanone] gave a remaining activity at 10 µM (P2X7 [1]) of -16.1%, an IC50 (rat P2X7) of 157 nM and a Ki (P2X7 [2]) of 126 nM. The IC50 (P2X7 [3]; [4]) was 0.107 µM.
Work on Cc1nc(-c2ccn[nH]2)c2c(n1)[C@@H]1CCC[C@H](C2)N1C(=O)c1cccc(Cl)c1Cl [Example 11, (2,3-dichlorophenyl)((6R,10S)-2-methyl-4-(1H-pyrazol-5-yl)-5,6,7,8,9,10-hexahydro-6,10-epiminocycloocta[d]pyrimidin-11-yl)methanone] yielded a remaining activity at 10 µM (P2X7 [1]) of 24.4%, an IC50 (rat P2X7) of 944 nM and a Ki (P2X7 [2]) of 501 nM. For the same molecule, the IC50 (P2X7 [3]; Human Whole Blood IC50 (μM)) was 0.302 µM.
Cc1nc(-c2ccc(F)cc2)c2c(n1)[C@H]1CCC[C@@H](C2)N1C(=O)c1cccc(C(F)(F)F)c1Cl [Example 51, (2-chloro-3-(trifluoromethyl)phenyl)((6S,10R)-4-(4-fluorophenyl)-2-methyl-5,6,7,8,9,10-hexahydro-6,10-epiminocycloocta[d]pyrimidin-11-yl)methanone] gave a remaining activity at 10 µM (P2X7 [1]) of -3%, an IC50 (rat P2X7) of 16.6 nM and a Ki (P2X7 [2]) of 44.7 nM. The IC50 (P2X7 [3]; Human Whole Blood IC50 (μM)) was 0.043 µM.
Cc1nc(-c2cnccn2)c2c(n1)[C@H]1CCC[C@@H](C2)N1C(=O)c1ccc(Cl)c(F)c1Cl [Example 47, (2,4-dichloro-3-fluorophenyl)((6S,10R)-2-methyl-4-(pyrazin-2-yl)-5,6,7,8,9,10-hexahydro-6,10-epiminocycloocta[d]pyrimidin-11-yl)methanone] showed a remaining activity at 10 µM (P2X7 [1]) of -3.4%, an IC50 (rat P2X7) of 245 nM and a Ki (P2X7 [2]) of 39.8 nM. The IC50 (P2X7 [3]; Human Whole Blood IC50 (μM)) was 0.04 µM.
Molecule Cc1nc(-c2ccnn2C)c2c(n1)[C@H]1CCC[C@@H](C2)N1C(=O)c1cccc(C(F)(F)F)c1C [Example 57, (2-methyl-3-(trifluoromethyl)phenyl)((6S,10R)-2-methyl-4-(1-methyl-1H-pyrazol-5-yl)-5,6,7,8,9,10-hexahydro-6,10-epiminocycloocta[d]pyrimidin-11-yl)methanone] has a remaining activity at 10 µM (P2X7 [1]) of -0.3%, an IC50 (rat P2X7) of 597 nM and a Ki (P2X7 [2]) of 190 nM. For the same molecule, the IC50 (P2X7 [3]; [4]) was 0.191 µM.
